Consider 17 molecules from patent publication US6395876B1 (Medical College of Georgia Research Institute, Inc., priority 1997, dated 2002).

Molecules are shown by their SMILES. Values joined by “and” are separate entries in the source; they are usually repeats but may differ in a detail not shown here. Equal entries are not always repeated. “Also recorded” adds a separate entry of the source. Where two headings read alike, the source gives them in different places. Bounds are passed on as bounds.

The test system of assay [1] is high affinity tryptophan transporter. As to the kind of experiment: Competition of unlabeled substrates with radiolabeled tryptophan uptake, high-affinity system, macrophages. It is filed as cell-based, human.
Description: Uptake measurements. Single cell suspensions were obtained by treating macrophage monolayers with 2 mM EDTA in Hanks balanced salt solution for 15 minutes at room temperature. Cells were washed twice in Tris-choline buffer (150 mM choline chloride, 10 mM tris, pH 7.4), suspended in Tris-choline at between one and 2×10^6 cells/ml, and 100 μl/well added to 96 well microtiter plates. Titrations of radiolabeled amino acids were then transferred to the assay plate and uptake allowed to proceed for 10 minutes (the linear range). At the end of the assay period, wells were harvested simultaneously onto glass-fiber filters and washed vigorously for 30 seconds with phosphate buffered saline solution using a Tomtec 96 well parallel harvester. Nonspecific binding of radioactivity to the filters (based on wells without cells) was typically less than 10% of the total signal, and was subtracted from each data point. All assays were performed in triplicate; where error bars are not shown the SD between replicates was less than 10%. In all assays, the uptake rate (V) was normalized per 1×10^6 cells (expressed as pmol 10^6 cells^−1. 10 min^−1). Normalization to milligrams protein was considered less informative because protein content can change markedly during macrophage differentiation, independently of other functional attributes.
Assay [2] deals with system L. Kind of assay: Competition of unlabeled substrates with radiolabeled tryptophan uptake, system L component, macrophages. Type of assay: cell-based, human. As to conditions: for Ki: read-out: Ki (fit to Equation 1, single-system competitive model). The source says:
(§1) For competitive inhibition studies, the Ki value for each competitor was estimated by fitting the measured inhibition curve to the formula in Equation 1 (Cheng and Prusoff 1973, Biochem. Pharmacol. 22, 3099-3108). [formula]
(§2) where [S] is the concentration of labeled substrate, [I] is the concentration of unlabeled inhibitor, Vi is the observed rate of uptake in the presence of inhibitor, Ki is the putative affinity constant of the inhibitor for the transporter, and Km and Vmax have their customary meanings.

In assay [3] the test system is system L. Kind of assay: Radiolabeled amino acid uptake saturation kinetics, lower-affinity system, macrophages. Type of assay: cell-based, human. As to conditions: for Km: read-out: Km of low affinity transporter (system L). An excerpt:
Monocyte isolation and culture.
Analysis of saturation kinetics.

Assay [4] relates to system L. Kind of assay: Competition of unlabeled tryptophan for uptake of radiolabeled leucine or phenylalanine, macrophages. As to conditions: labeled leucine or phenylalanine 125 nM. Type of assay: cell-based, human.
Description: as §1, §2

Assay [5] deals with system L. As to conditions: read-out: reported Km of system L for tryptophan; reported affinity; cited from earlier work.
In assay [6] the test system is high affinity tryptophan transporter.
Description: Human peripheral blood monocytes were isolated from healthy volunteer donors by leukocytapheresis and counterflow centrifugal elutriation, following appropriate informed consent under a protocol approved by our Institutional Review Board.
Single cell suspensions were obtained by treating macrophage monolayers with 2 mM EDTA in Hanks balanced salt solution for 15 minutes at room temperature. Cells were washed twice in Tris-choline buffer (150 mM choline chloride, 10 mM tris, pH 7.4), suspended in Tris-choline at between one and 2×10^6 cells/ml, and 100 μl/well added to 96 well microtiter plates. […] Nonspecific binding of radioactivity to the filters (based on wells without cells) was typically less than 10% of the total signal, and was subtracted from each data point. […] In all assays, the uptake rate (V) was normalized per 1×10^6 cells (expressed as pmol 10^6 cells^−1. 10 min^−1). […]
Uptake kinetics were analyzed using an Eadie-Hofstee transformation (V/[S] vs. V) to identify linear concentration ranges for each transporter. Data from these two ranges were then analyzed separately using double-reciprocal (Lineweaver-Burk, 1/[S] vs. 1/V) plots to determine Km and Vmax. […] Kinetic parameters were calculated on a minimum of 4-6 points, and were considered reliable if the correlation coefficient of the regression line was greater than 0.95. […]
Assay [7] has as its system monocyte derived macrophages. As to the kind of experiment: Total tryptophan uptake in monocyte-derived macrophages (sodium and temperature dependence). It is filed as cell-based, human. How it is done:
The majority of tryptophan uptake is sodium-independent. Uptake in the absence of sodium was 86±6% of uptake in saline, n=4 Therefore all subsequent assays were performed in the absence of sodium.

Where [8] appears, read: unlabeled competitor vs radiolabeled tryptophan (125 or 250 nM).
[9] abbreviates: read-out: IC50 for inhibition of radiolabeled tryptophan uptake, radiolabeled tryptophan 125 nM.
Where [10] appears, read: unlabeled competitor 4 μM, radiolabeled tryptophan 125 nM.
[11] abbreviates: uptake of the radiolabeled amino acid, high substrate concentrations (8-64 μM).

As for `Cn1cc(C[C@H](N)C(=O)O)c2ccccc21` [1-methyl tryptophan], in assay [1] (setting [8]), the “competition with tryptophan for the high-affinity system” value (from here on “competition with tryptophan”) was “no competition”.
In the case of `N[C@@H](Cc1c[nH]c2ccc(O)cc12)C(=O)O` [5-hydroxy tryptophan], the “competition with tryptophan” value is “did not compete” in assay [1] (setting [8]) and “failed to compete” in assay [1] (unlabeled competitor vs radiolabeled tryptophan (125 or 250 nM), listed as 5-hydroxy derivative of tryptophan).
As for `N=C(N)NCCC[C@H](N)C(=O)O` [ARG], the “effect of 4 μM unlabeled competitor on tryptophan uptake” value (“effect of 4 μM unlabeled competitor” below) in assay [1] is reported as “little impact”.
For the molecule `NC1(C(=O)O)CC2CCC1C2` (centres unmarked) [BCH, 2-aminobicyclo(2,2,1)-hepatane-2-carboxylic acid], in the assay on system L [2] (greater than 8 μM tryptophan, 500 μM unlabeled BCH), the “mode of inhibition of tryptophan uptake, system L range” value is given as “competitive inhibitor; also recorded: competitively inhibits”. In addition, the “IC50 of BCH relative to IC50 of tryptophan” value in the assay with system L [2] (inhibition of tryptophan transport, radiolabeled tryptophan 125 nM) is “approximately 100 fold”. Besides, in the assay on system L [2] (radiolabeled tryptophan 125 nM, unlabeled substrates 8 mM each), the “inhibition of tryptophan transport by 8 mM unlabeled substrate” value is reported as “inhibited”. Further, the Ki on system L [2] (radiolabeled tryptophan 125 nM) worked out at 37 µM. The IC50 with system L [2] (setting [9]) was 37 µM; in assay [1] (saturation kinetics of tryptophan (<1 μM) with or without 500 μM BCH, read-out: IC50 for interaction with the high-affinity system) it was more than 500 µM. In addition, the “mode of inhibition of tryptophan uptake, high-affinity range” value in assay [1] (less than 1 μM tryptophan, 500 μM unlabeled BCH) is on record as “strictly non-competitive; also recorded: weak non-competitive inhibitor”. For the same molecule, in assay [1] (setting [10]), the “effect of 4 μM unlabeled competitor” value was “minimal effect; also recorded: little impact”. Further, the “competition with tryptophan” value in assay [1] (setting [8]) is “no evidence of competition; also recorded: did not compete; also recorded: not able to compete”.
Take `N[C@H](Cc1c[nH]c2ccccc12)C(=O)O` [D-tryptophan]: the “competition with tryptophan” value in assay [1] is “did not compete”.
As for `N[C@@H](Cc1c[nH]cn1)C(=O)O` [HIS], in assay [1] (setting [10]), the “effect of 4 μM unlabeled competitor” value is reported as “little impact”.
Regarding `CC[C@H](C)[C@H](N)C(=O)O` [ILE], in assay [1] (setting [10]), the “effect of 4 μM unlabeled competitor” value is listed as “little impact”.
`NCCCC[C@H](N)C(=O)O` [LYS]: the “effect of 4 μM unlabeled competitor” value in assay [1] (setting [10]) is “little impact”.
The same measure, in the same setting: as for `CSCC[C@H](N)C(=O)O` [MET], the entry is “little impact”.
Consider `CC(=O)N[C@@H](Cc1c[nH]c2ccccc12)C(=O)O` [N-acetyl tryptophan], for which, in assay [1] (setting [8]), the “competition with tryptophan” value is reported as “did not compete”.
With `C[C@@H](O)[C@H](N)C(=O)O` [THR], in assay [1] (setting [10]), the “effect of 4 μM unlabeled competitor” value was “little impact”.
Turning to `N[C@@H](Cc1ccc(O)cc1)C(=O)O` [TYR, tyrosine], the “effect of 4 μM unlabeled competitor” value in assay [1] (setting [10]) is listed as “little impact”.
Same read-out and setting: as for `CC(C)[C@H](N)C(=O)O` [VAL], the entry is “little impact”.
For `CC(C)C[C@H](N)C(=O)O` [leucine], the Km with system L [3] (setting [11]) is 26 ± 6 µM. For the same molecule, in assay [1] (setting [10]), the “effect of 4 μM unlabeled competitor” value was “little impact”. Besides, the “competition with tryptophan” value in assay [1] (setting [8]) is listed as “do not compete”.
For `N[C@@H](Cc1ccccc1)C(=O)O` [phenylalanine], the Km in the assay with system L [3] (setting [11]) stood at 29 ± 2 µM. Besides, the Ki at system L [2] (radiolabeled tryptophan 125 nM) is approximately 10 µM. Further, the “effect of 4 μM unlabeled competitor” value in assay [1] (setting [10]) was “little impact”. Moreover, the “competition with tryptophan” value in assay [1] (setting [8]) was “do not compete; also recorded: no detectable competition”.
In the case of `NCCc1c[nH]c2ccc(O)cc12` [serotonin], the “competition with tryptophan” value in assay [1] (setting [8]) is given as “did not compete”.
For `N[C@@H](Cc1c[nH]c2ccccc12)C(=O)O` [tryptophan], the “calculated uptake via system L alone” value in the assay with system L [3] (Equation 1, 50 nM tryptophan, 1 mM total other competing amino acids) is recorded as 1.5 fmol 10^6 cells^−1. 10 min^−1. For the same molecule, the figures for the “Vmax, system L component” value with system L [3] (after macrophage differentiation) and in the assay with system L [3] (before macrophage differentiation) were 27±4 pmol 10^6 cells^−1. 10 min^−1 and 14±8 pmol 10^6 cells^−1. 10 min^−1, respectively. Moreover, the Km with system L [3] was 27 µM and 30 µM and 20 to 30 µM; in the assay on system L [5], 8 to 30 µM; in assay [6], 0.29 ± 0.16 µM. Also, the “high-affinity inhibition of phenylalanine or leucine uptake” value with system L [4] was “no detectable”. Further, the inhibition constant (Ki) was 30 µM at system L [4] (read-out: Ki of tryptophan versus labeled leucine or phenylalanine uptake) and 0.36 µM in assay [1] (radiolabeled tryptophan 125 nM, read-out: Ki (fit to Equation 1, single-system model)). The “calculated uptake with the selective high-affinity system present” value in assay [6] was 70 fmol 10^6 cells^−1. 10 min^−1. Further, in assay [7] (0° C. vs 25° C., up to 30 min), the “reduction of the rate of tryptophan accumulation at 0° C.” value was determined as 90%. Also, the “uptake in the absence of sodium relative to uptake in saline” value in assay [7] (radiolabeled tryptophan 125 nM, choline chloride vs 150 mM NaCl) is 86% and 86±6%. In addition, the IC50 in assay [1] (setting [9]) worked out at 0.36 µM. In addition, in assay [1] (setting [10]), the “effect of 4 μM unlabeled competitor” value is “markedly inhibited”.
